According to US10081615B2, “Sulfamate derivative compounds for use in treating or alleviating pain” (Bio-Pharm Solutions Co., Ltd., priority 2013, dated 2018):

tested on: CFA-induced pain model; test: Antiallodynic activity on Complete Freund's Adjuvant (CFA)-induced inflammatory pain model (von Frey); assay type: in vivo, Sprague-Dawley rats; settings: Rattus norvegicus, ip, 0.5 h, read-out: CFA model: effect (%) compared to control
Protocol: Male, Sprague-Dawley rats (200-220 g, Nara Bio, Korea) were habituated for 1 week before surgery and allowed free access to food and water throughout the experimentation. Room temperature and humidity were maintained at 24±2° C. and 50±10%, respectively.
CFA-induced inflammatory pain was induced by the procedure of Nagakura et al. (2003) and Gregory P. et al. (2010) with minor modifications. CFA (sigma, USA) was injected into the left plantar with a 100 ul volume under gaseous anesthesia with isoflurane and NO2 with a 4:4 flow ratio. Sham controls were injected with 100 ul of saline and preparation of the vehicle controls were identical to the group treated with compound, except for administration of vehicles without compound in the vehicle control group.
Tactile sensitivity (mechanical allodynia) was evaluated using von Frey monofilaments before and after treatment, and the animals were included in the study only if the withdrawal threshold value was less than 4 g. One week after surgery, CFA-infused animals (n=4˜6), sham-operated animals (n=12), and vehicle-operated animals (n=17) were tested for tactile sensitivity with von Frey monofilaments, with 3 trials for each animal. All animals were placed in a stainless steel mesh chamber and habituated for 30 min in the test cage. The tactile sensitivity for the ipsilateral hind paw was measured using the up-and-down method (Dixon, 1980) with seven von Frey monofilaments (0.4, 1, 2, 4, 6, 8, and 15 g) in 3 trials. The tactile sensitivity test was followed by Dixon's method (Dixon, 1980). The 50% paw withdrawal threshold for each paw was calculated using the following formula: [Xth] log=[vFr] log+ky where [vFr] is the force of the last von Frey used, k=0.2249 which is the average interval (in log units) between the von Frey monofilaments, and y is a value that depends upon the pattern of the withdrawal responses (Dixon, 1980).
The antiallodynic effect of the compound of Example was evaluated at the doses of 10, 30 and 60 mg/kg (n=4˜6), and were intraperitoneally administered in a volume of 5 ul/g by bodyweight in a vehicle of 30% (v/v) PEG. […]
The relative values compared to the sham (% control) were calculated and are shown in Table 4, which show an antiallodynic effect of the compound of examples in the CFA-induced pain model in rats.

Work on `CC1(C)Oc2ccccc2C(COS(N)(=O)=O)O1` (stereo not drawn) [Example 72, Potassium (((2,2-dimethyl-4H-benzo[d][1,3]dioxin-4-yl)methoxy)sulfonyl)amide] yielded a response vs control in vivo at 50 mg/kg of 67.1%.

same assay, conditions: ip; rat, intraperitoneal, 25 mg/kg administered, 0.5 h; read-out: CFA model: effect (%) compared to control

First: NS(=O)(=O)OCC1OC2(CCCCC2)Oc2ccc(Cl)cc21 (racemic) [Example 53, (6-chloro-4H-spiro[benzo[d][1,3]dioxine-2,1′-cyclohexan]-4-yl)methyl sulfamate]
Second: NS(=O)(=O)OC[C@@H]1OC2(CCCCC2)Oc2ccccc21 [Example 10, ((R)-4H-spiro[benzo[d][1,3]dioxine-2,1′-cylcohexan]-4-yl)methyl sulfamate]
The response vs control in vivo at 25 mg/kg of the first is higher: 57.3% for the first, 37.2% for the second.

Compared with `CC1(C)Oc2ccc(F)cc2C(COS(N)(=O)=O)O1` (racemic) [Example 54, (6-fluoro-2,2-dimethyl-4H-benzo[d][1,3]dioxin-4-yl)methyl sulfamate], `COc1ccc2c(c1)C(COS(N)(=O)=O)OC(C)(C)O2` (racemic) [Example 57, (6-methoxy-2,2-dimethyl-4H-benzo[d][1,3]dioxin-4-yl)methyl sulfamate] is lower in response vs control in vivo at 25 mg/kg: 82.9% for the first, 39.1% for the second.

`CCC1(CC)Oc2c(Cl)cccc2[C@@H](COS(N)(=O)=O)O1` [Example 29, ((S)-8-chloro-2,2-diethyl-4H-benzo[d][1,3]dioxin-4-yl)methyl sulfamate] gave a response vs control in vivo at 25 mg/kg of 43.9%.

same assay, conditions: ip; rat, intraperitoneal, 50 mg/kg administered, 0.5 h; read-out: CFA model: effect (%) compared to control

First: CCC1(CC)Oc2ccccc2C(COS(N)(=O)=O)O1 (racemic) [Example 6, (2,2-diethyl-4H-benzo[d][1,3]dioxin-4-yl))methyl sulfamate]
Second: CCC1(CC)Oc2ccc(Cl)cc2C(COS(N)(=O)=O)O1 (racemic) [Example 51, (6-chloro-2,2-diethyl-4H-benzo[d][1,3]dioxin-4-yl)methyl sulfamate]
The response vs control in vivo at 50 mg/kg of the first is higher: 64.6% for the first, 23.3% for the second.

Compared with `NS(=O)(=O)OCCC1OC2(CCCCC2)Oc2ccccc21` (racemic) [Example 16, 2-(4H-spiro[benzo[d][1.3]dioxine-2,1′-cyclohexan]-4-yl)ethyl sulfamate], `NS(=O)(=O)OC[C@H]1OC2(CCCC2)Oc2ccccc21` [Example 8, ((S)-4H-spiro[benzo[d][1,d]dioxine-2,1′-cyclopentan]-4-yl)methyl sulfamate] is higher in response vs control in vivo at 50 mg/kg: 38.9% for the first, 74.8% for the second.

First: CCC1(CC)Oc2ccccc2CC(COS(N)(=O)=O)O1 (racemic) [Example 18, (2,2-diethyl-4,5-dihydrobenzo[d][1,3]dioxepin-4-yl)methyl sulfamate]
Second: NS(=O)(=O)OCC1Cc2ccccc2OC2(CCCCC2)O1 (racemic) [Example 20, (4,5-dihydrospiro[benzo[d][1,3]dioxepine-2,1′-cyclohexan]-4-yl)methyl sulfamate]
The response vs control in vivo at 50 mg/kg of the first is higher: 91.7% for the first, 69% for the second.

Compared with `CC1(C)Oc2cc(Cl)ccc2C(COS(N)(=O)=O)O1` (racemic) [Example 45, (7-chloro-2,2-dimethyl-4H-benzo[d][1,3]dioxin-4-yl)methyl sulfamate], `CC1(C)Oc2ccc(Cl)cc2C(COS(N)(=O)=O)O1` (racemic) [Example 48, (6-chloro-2,2-dimethyl-4H-benzo[d][1,3]dioxin-4-yl)methyl sulfamate] is lower in response vs control in vivo at 50 mg/kg: 33.1% for the first, 21.7% for the second.

First: CC1(C)Oc2c(Cl)cccc2[C@@H](COS(N)(=O)=O)O1 [Example 26, ((S)-8-chloro-2,2-dimethyl-4H-benzo[d][1,3]dioxin-4-yl)methyl sulfamate]
Second: CC1(C)Oc2ccc(Cl)cc2[C@H](COS(N)(=O)=O)O1 [Example 46, ((R)-6-chloro-2,2-dimethyl-4H-benzo[d][1,3]dioxin-4-yl)methyl sulfamate]
The response vs control in vivo at 50 mg/kg of the first is lower: 34.2% for the first, 36.4% for the second.

First: NS(=O)(=O)OC[C@H]1OC2(CCCC2)Oc2c(Cl)cccc21 [Example 32, ((S)-8-chloro-4H-spiro[benzo[d][1,3]dioxine-2,1′-cyclopentan]-4-yl)methyl sulfamate]
Second: NS(=O)(=O)OC[C@H]1OC2(CCCCC2)Oc2c(Cl)cccc21 [Example 35, ((S)-8-chloro-4H-spiro[benzo[d][1,3]dioxine-2,1′-cylcohexan]-4-yl)methyl sulfamate]
The response vs control in vivo at 50 mg/kg of the first is higher: 51.9% for the first, 15.5% for the second.

In the case of `CC1(C)Oc2ccc(Cl)cc2[C@@H](COS(N)(=O)=O)O1` [Example 47, ((S)-6-chloro-2,2-dimethyl-4H-benzo[d][1,3]dioxin-4-yl)methyl sulfamate], the response vs control in vivo at 50 mg/kg is reported as 100%.

tested on: not given; test: not given; settings: not given

First: CC1(C)Oc2ccccc2[C@@H](COS([NH-])(=O)=O)O1.[Na+] (hydrate or solvate) [Example 59, Sodium (S)-(((2,2-dimethyl-4H-benzo[d][1,3]dioxin-4-yl)methoxy)sulfonyl)amide Trihydrate]
Second: CC1(C)Oc2ccccc2C(COS([NH-])(=O)=O)O1.[Na+] (stereo not drawn) (hydrate or solvate) [Example 60, Sodium (((2,2-dimethyl-4H-benzo[d][1,3]dioxin-4-yl)methoxy)sulfonyl)amide Trihydrate]
The melting point of the first is lower: 51.2 to 52.2 °C for the first, 81 to 86 °C for the second.

tested on: SNL model; test: Antiallodynic activity in the Chung model (SNL, Spinal Nerve Ligation; von Frey); assay type: in vivo, Sprague-Dawley rats; settings: Rattus norvegicus, po, 0.5 h, read-out: SNL model: effect (%) compared to control, rat, oral, 3.5 mg/kg administered, 0.5 h
Protocol: Male Sprague-Dawley rats (200-220 g, Orient Bio, Korea) were habituated for 1 week before the experiment and allowed free access to food and water throughout the experimentation. Room temperature and humidity were maintained at 24±2° C. and 50±10%, respectively. The neuropathic surgery (SNL, Spinal Nerve Ligation) model was done as described in Kim and Chung (1992). Briefly, an animal was put under gaseous anesthesia with isoflurane and NO2 with a 4:4 flow ratio. The left lumbar spinal nerves L5 and L6 were isolated and tightly ligated with 4-0 silk thread. The wound was treated with a gentamicin antibiotic solution (4 mg/kg, 4 ul/g by bodyweight), and the wound muscle was closed with Catgut® chrome 4/0 thread and the skin was closed with Dafilon 4/0 thread. Sham controls were prepared in the same manner with the spinal nerves were exposed, but no ligated L5 and L6 nerves. Preparation of the vehicle controls were identical to the group treated with compound, except for administration of vehicles without compound in the vehicle control group.
Tactile sensitivity (mechanical allodynia) was evaluated using von Frey monofilaments before and after treatment and animals the animals were included in the study only if the withdrawal threshold value was less than 4 g. One week after surgery, SNL-operated animals (n=4˜6), sham-operated animals (n=4˜10) and vehicle-operated animals (n=4˜13) were tested for tactile sensitivity with von Frey monofilaments with 3 trials in each animal. All animals were placed in a stainless steel mesh chamber and habituated for 30 min in the test cage. The tactile sensitivity for ipsilateral hind paw was measured using the up-and-down method (Dixon, 1980) with seven von Frey monofilaments (0.4, 1, 2, 4, 6, 8, and 15 g) in 3 trials. The tactile sensitivity test was followed by Dixon's method (Dixon, 1980). The 50% paw withdrawal threshold for each paw was calculated using the following formula: [Xth] log=[vFr] log+ky where [vFr] is the force of the last von Frey used, k=0.2249 which is the average interval (in log units) between the von Frey monofilaments, and y is a value that depends upon the pattern of withdrawal responses (Dixon, 1980).
All animals were fasted for 18 h before the administration of the compounds. The antiallodynic effect of the compounds were evaluated at the various doses (n=5˜6), orally administered in a volume of 5 ul/g by bodyweight in a vehicle of 30% (v/v) PEG 400 (Example 7) or 20% (v/v) Tween 80 (Examples 5 and 6) or saline. […]
The relative values compared to the sham group (% control) were calculated and are shown in Table 5, which show an antiallodynic effect of the test compounds in the SNL model in rats.

With `CC1(C)Oc2ccccc2C(CCOS(N)(=O)=O)O1` (stereo not drawn) [Example 68, Sodium ((2-(2,2-dimethyl-4H-benzo[d][1,3]dioxin-4-yl)ethoxy)sulfonyl)amide] the response vs control in vivo at 3.5 mg/kg was 25%.

same assay, conditions: Rattus norvegicus, po, read-out: SNL model: effect (%) compared to control, rat, oral, 3.5 mg/kg administered, time not given

Compound `CC1(C)Oc2ccc(Cl)cc2[C@H](COS(N)(=O)=O)O1` [Example 61, Sodium (R)-(((6-chloro-2,2-dimethyl-4H-benzo[d][1,3]dioxin-4-yl)methoxy)sulfonyl)amide] has a response vs control in vivo at 3.5 mg/kg of 20.9%.

same assay, conditions: rat, oral, 3.5 mg/kg administered, 0.5 h

With `CC1(C)Oc2ccccc2[C@@H](COS([NH-])(=O)=O)O1.[Li+]` [Example 73, Lithium (S)-(((2,2-dimethyl-4H-benzo[d][1,3]dioxin-4-yl)methoxy)sulfonyl)amide] the “SNL model: effect (%) compared to control” value was “(13.5%, 0.5 h)”.

same assay, conditions: rat, oral, 3.5 mg/kg administered, 0.5 h; read-out: SNL model: effect (%) compared to control

With `CC1(C)Oc2ccccc2CC(COS(N)(=O)=O)O1` (racemic) [Example 17, (2,2-dimethyl-4,5-dihydrobenzo[d][1,3]dioxepin-4-yl)methyl sulfamate] the response vs control in vivo at 3.5 mg/kg was 16.8%.

same assay, conditions: rat, oral, 3.5 mg/kg administered, time not given; read-out: SNL model: effect (%) compared to control

Going from `CCC1(CC)Oc2ccccc2C(CCOS(N)(=O)=O)O1` (racemic) [Example 14, 2-(2,2-diethyl-4H-benzo[d][1.3]dioxin-4-yl)ethyl sulfamate] to `NS(=O)(=O)OCC1Cc2ccccc2OC2(CCCC2)O1` (racemic) [Example 19, (4,5-dihydrospiro[benzo[d][1,3]dioxepine-2,1′-cyclopentan]-4-yl)methyl sulfamate], the response vs control in vivo at 3.5 mg/kg falls from 37.9% to 33.3%.
